Laboratory results as given in US20230381170A1, “METHOD FOR TREATING ALS/FTD THROUGH DEGRADATION OF RNA REPEAT EXPANSION” (University of Florida Research Foundation, Incorporated, priority 2020, published 2023).

Tests used:
[1] = test system: c9 patient-derived iPSCs; assay: Cell viability; assay type: cell-based, human; conditions: 1-1000 nM
Description: Cell Viability. Lymphoblastoid cells were seeded in 96-well plate (˜10^4 cells/well) overnight and then treated with compounds for 48 h. The cell viability was measured by CellTiter-Fluor™ Cell Viability Assay per the manufacturer's protocol. For iPSCs, cells (diluted 1:4 after harvesting from a 100 mm dish) were seeded in Matrigel-coated 24-well plate. After 24 h, the compounds were added for 48 h and cell viability was measured by AlamarBlue™ Cell Viability Reagent (DAL1025, Thermo Fisher Scientific) per the manufacturer's protocol.

[2] = target: T1, ternary complex r(G4C2)66, RNase L and 7 (Homo sapiens, UniProt Q05823); assay: RNase L RNA immunoprecipitation in HEK293T cells; assay type: cell-based; conditions: 500 nM, compared to vehicle
T1 construct: for degradation by recruiting the endogenous nuclease Rnase L; endogenous in cells; host or cells: HEK293T cells transfected with the (G4C2)66-No ATG-GFP plasmid (RNA only)
Description: RNA Immunoprecipitation. HEK293T cells were transfected with (G4C2)66-No ATG-GFP plasmid as described above, split into in 6-well plates, grown to ˜70% confluency, and treated with 500 nM 7 diluted in growth media for 24 h. The cell was washed with 1×PBS, removed from the plate with Accutase (Innovative Cell Technologies, Inc.), and then washed with 1×PBS. Cells were then lysed in 100 μL of M-PER buffer supplemented with 80 U RNaseOUT Recombinant Ribonuclease Inhibitor (Invitrogen) and 1× Protease Inhibitor Cocktail III for Mammalian Cells (Research Products International Corp.) per manufacturer's recommendations. The protein samples were tumbled overnight at 4° C. with Dynabeads Protein A (Life Technologies) that were bound to either β-actin mouse primary antibody (Cell Signaling Technologies; 3700S) or Rnase L mouse primary antibody (Santa Cruz Biotechnology; sc-74405). After antibody incubation, the beads were washed three times with 1×PBS supplemented with 0.02% Tween-20 and total RNA was extracted from beads using a miRNeasy Mini Kit (Qiagen) according to manufacturer's instructions.
Relative RNA expression levels before and after pull-down were determined by the ΔΔCt method and normalized to β-actin as a housekeeping gene.

[3] = test system: transcriptome of iPSCs derived from healthy donors; assay: RNA-seq in iPSCs from healthy donors; assay type: cell-based, human; conditions: 50 nM
[4] = test system: C9orf72 transcripts; assay: C9orf72 variants by RT-qPCR in brain of +/+PWR500 C9orf72 BAC mice; assay type: in vivo, mouse; conditions: three weeks
Description: Therapeutic Efficacy in a c9ALS/FD mouse model. All animal studies were completed as approved by the Scripps Florida Institutional Animal Care and Use Committee. A total of 24 mice (12+/+PWR500 [7 Male and 5 Female] and 12 WT [6 Male and 6 Female]) mice, age- and gender-matched and ranging in age from 18-22 weeks old were used in therapeutic efficacy studies (Table 6). Mice were anesthetized by intraperitoneal (i.p.) injection of 10 mg/mL Ketamine:1 mg/mL Xylazine solution. Intracerebroventricular (ICV) stereotactic injections of 10 μL of 7 (33 nmol) were administered into the right ventricle using the following coordinates: 0.2 mm posterior and 1.0 mm lateral to the right from the bregma and 3 mm deep. Mice were treated with 7 or vehicle consisting of 1% DMSO in Saline. Three weeks post-treatment, mice were euthanized, and tissue was harvested for study.
Measuring C9orf72 Variants by RT-qPCR. Postmortem brain tissue was harvested and sliced along the midline. The left hemisphere was frozen for RNA and protein analysis. The left hemisphere of each brain was homogenized in 300 μL ice cold Tris-EDTA buffer with 2× protease inhibitors. 150 μL of homogenized tissue was used for RNA extraction. 450 μL of triazol LS was added to the homogenized tissue and centrifuged for 15 min at 16,000 rpm. Following centrifugation, supernatant was collected and an equal volume (600 μL) of 100% ethanol was added and mixed thoroughly. RNA was purified using a Direct-zol RNA Kit (Zymo Research) per the manufacturer's protocol. RT-qPCR was performed as described above. Expression levels of mRNAs were normalized to mouse (3-actin. See Table 2 for a list of primers. Statistical analysis was measured using an unpaired t-test with Welch's correction.

[5] = test system: C9orf72 exon 1b transcripts lacking r(G4C2)exp; assay: C9orf72 exon 1b RT-qPCR in patient-derived LCLs; assay type: cell-based, human; conditions: any concentration
Description: Measuring Levels of C9orf72 and C9orf72 Variants by RT-qPCR. LCLs were seeded in 6-well plate (˜10^6 cells in 2 mL of growth medium) and incubated overnight at 37° C. Cells were then treated with various concentrations of compound for 24 h or with G4C2-ASO and Control-ASO (100 nM), delivered by transfection with Lipofectamine RNAiMax. RNA was extracted as described above and the expression of C9orf72 variants was determined by RT-qPCR. […] For compound treatment well, medium change was performed with fresh compound every 3-4 days. RNA was extracted as described above and the expression of C9orf72 variants was determined by RT-qPCR.

T1 sequence (Q05823 whole entry, one chain of several): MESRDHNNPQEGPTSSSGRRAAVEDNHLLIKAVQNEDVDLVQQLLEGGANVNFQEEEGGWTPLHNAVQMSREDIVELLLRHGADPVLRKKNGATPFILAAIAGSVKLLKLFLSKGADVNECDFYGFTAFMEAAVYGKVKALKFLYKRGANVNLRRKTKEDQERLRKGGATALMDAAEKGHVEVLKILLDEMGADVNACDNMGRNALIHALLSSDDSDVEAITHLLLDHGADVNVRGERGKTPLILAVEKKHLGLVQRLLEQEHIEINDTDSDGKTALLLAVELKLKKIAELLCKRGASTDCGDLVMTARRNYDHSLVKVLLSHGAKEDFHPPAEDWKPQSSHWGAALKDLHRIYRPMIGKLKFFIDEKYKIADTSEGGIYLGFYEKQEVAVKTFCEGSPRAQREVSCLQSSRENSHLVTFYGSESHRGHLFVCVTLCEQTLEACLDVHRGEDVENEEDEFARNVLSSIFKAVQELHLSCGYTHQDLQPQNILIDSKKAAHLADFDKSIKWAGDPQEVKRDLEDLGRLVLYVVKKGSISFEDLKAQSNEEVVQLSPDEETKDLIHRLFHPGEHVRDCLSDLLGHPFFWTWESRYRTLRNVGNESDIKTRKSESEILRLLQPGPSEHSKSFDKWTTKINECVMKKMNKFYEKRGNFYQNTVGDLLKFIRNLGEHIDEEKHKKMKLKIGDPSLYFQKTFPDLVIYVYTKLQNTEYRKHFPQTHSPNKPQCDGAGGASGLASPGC

## Cc1c2ccncc2c(C)c2c1[nH]c1ccc(OCCOCCOCCNCCOCCOCCOc3ccc4[nH]c5c(C)c6ccncc6c(C)c5c4c3)cc12 [Compound 3]
[1]
  toxicity: no toxicity

## CCOC(=O)C1=C(Nc2ccccc2)S/C(=C\c2ccc(OCCOCCOCCOCCNC(=O)CCC(=O)N(CCOCCOCCOc3ccc4[nH]c5c(C)c6ccncc6c(C)c5c4c3)CCOCCOCCOc3ccc4[nH]c5c(C)c6ccncc6c(C)c5c4c3)c(O)c2)C1=O [Compound 7]
[2]
  enrichment of r(G4C2)exp-containing mRNA in anti-Rnase L immunoprecipitated fractions: ~2 fold
[3]
  changes in the transcriptome: no changes
[4]; 33 nmol ICV
  C9orf72 exon 1b RNA levels: not altered
  all C9orf72 transcripts (exon 2-exon 3 junction): reduced
[4]; 33 nmol single ICV injection, compared to vehicle
  reduction of r(G4C2)exp-containing intron 1 mRNA: 44±22%
[5]
  C9orf72 transcripts that lack r(G4C2)exp (exon 1b): no decrease
